# Measured values from patent US8796289B2 (AbbVie Inc., priority 2011, dated 2014).
# Biological target: GST-tagged-Wee1 kinase (Homo sapiens, UniProt P30291)
# Experiment: Wee1 time-resolved fluorescence equilibrium binding assay (displacement of Oregon Green-labeled ATP-competitive kinase probe)
# Procedure: Wee1 kinase was assayed using a time-resolved fluorescence equilibrium binding assay monitoring displacement of a rapidly reversible Oregon Green-labeled ATP-competitive kinase probe (N-(2-(2-(2-(4-(4-(5-chloro-4-(2-(1-hydroxycyclobutyl)thiazol-5-yl)-1H-pyrrolo[2,3-b]pyridin-2-yl)phenyl)piperazin-1-yl)ethoxy)ethoxy)ethyl)-2′,7′-difluoro-3′,6′-dihydroxy-3-oxo-3H-spiro[isobenzofuran-1,9′-xanthene]-5-carboxamide) by competitive Wee1 inhibitors.
# Chain of GST-tagged-Wee1 kinase (P30291 whole entry): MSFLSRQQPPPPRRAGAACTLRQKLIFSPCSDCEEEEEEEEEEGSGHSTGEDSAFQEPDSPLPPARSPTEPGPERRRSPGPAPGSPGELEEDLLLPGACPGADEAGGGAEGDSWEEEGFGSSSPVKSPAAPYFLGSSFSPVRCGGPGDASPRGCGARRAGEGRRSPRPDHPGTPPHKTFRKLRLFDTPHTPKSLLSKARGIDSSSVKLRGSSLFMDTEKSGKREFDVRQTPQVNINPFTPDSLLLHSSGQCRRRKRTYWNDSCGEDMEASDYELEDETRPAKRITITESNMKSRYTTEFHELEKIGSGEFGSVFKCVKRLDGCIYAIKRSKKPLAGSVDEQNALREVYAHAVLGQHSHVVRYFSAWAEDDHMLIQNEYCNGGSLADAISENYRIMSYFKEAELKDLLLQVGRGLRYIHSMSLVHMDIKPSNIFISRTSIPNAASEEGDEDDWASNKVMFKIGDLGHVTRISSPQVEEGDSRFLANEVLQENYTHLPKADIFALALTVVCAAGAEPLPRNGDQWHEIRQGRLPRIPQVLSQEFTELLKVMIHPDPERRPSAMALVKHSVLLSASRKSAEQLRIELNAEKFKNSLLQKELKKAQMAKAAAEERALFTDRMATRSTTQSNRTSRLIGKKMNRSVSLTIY
row,SMILES,Ki [nM]
1,"Cc1nn(-c2c(Cl)cccc2Cl)c(=O)c2cnc(Nc3ccc4c(c3)C(C)(C)N(C)CC4)nc12 [Example 443, 6-(2,6-dichlorophenyl)-8-methyl-2-[(1,1,2-trimethyl-1,2,3,4-tetrahydroisoquinolin-7-yl)amino]pyrimido[4,5-d]pyridazin-5(6H)-one]",0.3
2,"Cc1nn(-c2ccccc2Cl)c(=O)c2cnc(Nc3ccc(NC4CCNCC4)cc3)nc12 [Example 526, 6-(2-chlorophenyl)-8-methyl-2-{[4-(piperidin-4-ylamino)phenyl]amino}pyrimido[4,5-d]pyridazin-5(6H)-one]",0.48
3,"C=CCn1nc(-c2cccs2)c2nc(Nc3ccc(N4CCCC4=O)cc3)ncc2c1=O [Example 124, 6-allyl-2-{[4-(2-oxopyrrolidin-1-yl)phenyl]amino}-8-(2-thienyl)pyrimido[4,5-d]pyridazin-5(6H)-one]",75
4,"CN1CCN(c2ccc(Nc3ncc4c(=O)n(-c5c(Cl)cccc5Cl)nc(-c5cccc(N6CCCCC6=O)c5)c4n3)cc2)CC1 [Example 93, 6-(2,6-dichlorophenyl)-2-{[4-(4-methylpiperazin-1-yl)phenyl]amino}-8-[3-(2-oxopiperidin-1-yl)phenyl]pyrimido[4,5-d]pyridazin-5(6H)-one]",0.1
5,"CN1CCN(c2ccc(Nc3ncc4c(=O)n(-c5c(Cl)cccc5Cl)nc(C5CCCNC5)c4n3)cc2)CC1 (stereo not shown) [Example 105, 6-(2,6-dichlorophenyl)-2-{[4-(4-methylpiperazin-1-yl)phenyl]amino}-8-(piperidin-3-yl)pyrimido[4,5-d]pyridazin-5(6H)-one]",4
6,"CN1CCN(c2ccc(Nc3ncc4c(=O)n(-c5c(Cl)cccc5Cl)nc(-c5cccc(Br)c5)c4n3)cc2)CC1 [Example 72, 8-(3-bromophenyl)-6-(2,6-dichlorophenyl)-2-{[4-(4-methylpiperazin-1-yl)phenyl]amino}pyrimido[4,5-d]pyridazin-5(6H)-one]",0.5
7,"O=c1c2cnc(Nc3ccc(S(=O)(=O)N4CCOCC4)cc3)nc2c(-c2ccccc2)nn1-c1ccccc1Cl [Example 255, 6-(2-chlorophenyl)-2-{[4-(morpholin-4-ylsulfonyl)phenyl]amino}-8-phenylpyrimido[4,5-d]pyridazin-5(6H)-one]",> 3140
8,"Cc1nn(-c2c(F)cccc2Cl)c(=O)c2cnc(Nc3ccc(N4CCN(C)CC4)cc3)nc12 [Example 312, 6-(2-chloro-6-fluorophenyl)-8-methyl-2-{[4-(4-methylpiperazin-1-yl)phenyl]amino}pyrimido[4,5-d]pyridazin-5(6H)-one]",1.9
9,"O=c1c2cnc(Nc3ccc(N4CCNCC4)cc3)nc2c(-c2ccccn2)nn1CCO [Example 267, 6-(2-hydroxyethyl)-2-{[4-(piperazin-1-yl)phenyl]amino}-8-(pyridin-2-yl)pyrimido[4,5-d]pyridazin-5(6H)-one]",240
10,"CN1CCN(c2ccc(Nc3ncc4c(=O)n(-c5c(Cl)cncc5Cl)nc(-c5cncs5)c4n3)cc2)CC1 [Example 360, 6-(3,5-dichloropyridin-4-yl)-2-{[4-(4-methylpiperazin-1-yl)phenyl]amino}-8-(1,3-thiazol-5-yl)pyrimido[4,5-d]pyridazin-5(6H)-one]",2.4
11,"CCc1nn(-c2c(Cl)cccc2Cl)c(=O)c2cnc(Nc3ccc(N4CCNC(=O)C4)cc3)nc12 [Example 470, 6-(2,6-dichlorophenyl)-8-ethyl-2-{[4-(3-oxopiperazin-1-yl)phenyl]amino}pyrimido[4,5-d]pyridazin-5(6H)-one]",0.99
12,"COC(=O)c1cccc(-c2nn(-c3c(Cl)cccc3Cl)c(=O)c3cnc(Nc4ccc(N5CCN(C)CC5)cc4)nc23)c1 [Example 188, methyl 3-[6-(2,6-dichlorophenyl)-2-{[4-(4-methylpiperazin-1-yl)phenyl]amino}-5-oxo-5,6-dihydropyrimido[4,5-d]pyridazin-8-yl]benzoate]",1
13,"CN1CCN(c2ccc(Nc3ncc4c(=O)n(-c5c(Cl)cccc5Cl)nc(CF)c4n3)cc2)CC1 [Example 419, 6-(2,6-dichlorophenyl)-8-(fluoromethyl)-2-{[4-(4-methylpiperazin-1-yl)phenyl]amino}pyrimido[4,5-d]pyridazin-5(6H)-one]",0.19
14,"Cc1nn(-c2c(Cl)cccc2Cl)c(=O)c2cnc(Nc3ccc(C4CCCNC4)cc3)nc12 (stereo not shown) [Example 459, 6-(2,6-dichlorophenyl)-8-methyl-2-{[4-(piperidin-3-yl)phenyl]amino}pyrimido[4,5-d]pyridazin-5(6H)-one]",0.17
15,"CC1CCCC(C)C1n1nc(-c2ccccn2)c2nc(Nc3ccc4c(c3)CN(C)CC4(C)C)ncc2c1=O (stereo not shown) [Example 330, 6-(2,6-dimethylcyclohexyl)-8-(pyridin-2-yl)-2-[(2,4,4-trimethyl-1,2,3,4-tetrahydroisoquinolin-7-yl)amino]pyrimido[4,5-d]pyridazin-5(6H)-one]",260
16,"Cc1nn(-c2c(Cl)cccc2Cl)c(=O)c2cnc(Nc3ccc4c(c3)CNC4(C)C)nc12 [Example 489, 6-(2,6-dichlorophenyl)-2-[(1,1-dimethyl-2,3-dihydro-1H-isoindol-5-yl)amino]-8-methylpyrimido[4,5-d]pyridazin-5(6H)-one]",0.089
17,"CC1(C)CNCc2cc(Nc3ncc4c(=O)n(C5CCNCC5)nc(-c5ccccn5)c4n3)ccc21 [Example 305, 2-[(4,4-dimethyl-1,2,3,4-tetrahydroisoquinolin-7-yl)amino]-6-(piperidin-4-yl)-8-(pyridin-2-yl)pyrimido[4,5-d]pyridazin-5(6H)-one]",840
18,"CN1CCN(c2ccc(Nc3ncc4c(=O)n(-c5c(Cl)cccc5Cl)nc(-c5ccn(CCO)n5)c4n3)cc2)CC1 [Example 270, 6-(2,6-dichlorophenyl)-8-[1-(2-hydroxyethyl)-1H-pyrazol-3-yl]-2-{[4-(4-methylpiperazin-1-yl)phenyl]amino}pyrimido[4,5-d]pyridazin-5(6H)-one]",< 1

# The remaining lines, values ahead:
row,Ki [nM],SMILES
1,13,"CN1CCN(c2ccc(Nc3ncc4c(=O)n(-c5ccncc5Cl)nc(-c5ccccn5)c4n3)cc2)CC1 [Example 384, 6-(3-chloropyridin-4-yl)-2-{[4-(4-methylpiperazin-1-yl)phenyl]amino}-8-(pyridin-2-yl)pyrimido[4,5-d]pyridazin-5(6H)-one]"
2,680,"CN1CCN(c2ccc(Nc3ncc4c(=O)n(C)nc(CCc5ccccc5)c4n3)cc2)CC1 [Example 6, 6-methyl-2-{[4-(4-methylpiperazin-1-yl)phenyl]amino}-8-(2-phenylethyl)pyrimido[4,5-d]pyridazin-5(6H)-one]"
3,> 3140,"Cc1ccccc1-n1nc(-c2ccccc2)c2nc(Nc3ccc(S(=O)(=O)N4CCOCC4)cc3)ncc2c1=O [Example 109, 6-(2-methylphenyl)-2-{[4-(morpholin-4-ylsulfonyl)phenyl]amino}-8-phenylpyrimido[4,5-d]pyridazin-5(6H)-one]"
4,16,"Cn1cnc(-c2nn(-c3ncccc3Cl)c(=O)c3cnc(Nc4ccc5c(c4)CNCC5)nc23)c1 [Example 353, 6-(3-chloropyridin-2-yl)-8-(1-methyl-1H-imidazol-4-yl)-2-(1,2,3,4-tetrahydroisoquinolin-7-ylamino)pyrimido[4,5-d]pyridazin-5(6H)-one]"
5,0.3,"Cc1ccccc1-n1nc(-c2ccco2)c2nc(Nc3ccc4c(c3)CN(C)CC4)ncc2c1=O [Example 233, 8-(furan-2-yl)-6-(2-methylphenyl)-2-[(2-methyl-1,2,3,4-tetrahydroisoquinolin-7-yl)amino]pyrimido[4,5-d]pyridazin-5(6H)-one]"
6,0.61,"Cc1nn(-c2c(Cl)cccc2Cl)c(=O)c2cnc(Nc3ccc4c(c3)CN(C)CC4(C)C)nc12 [Example 364, 6-(2,6-dichlorophenyl)-8-methyl-2-[(2,4,4-trimethyl-1,2,3,4-tetrahydroisoquinolin-7-yl)amino]pyrimido[4,5-d]pyridazin-5(6H)-one]"
7,19,"CN1CCN(c2ccc(Nc3ncc4c(=O)n(-c5ccccc5)nc(-c5ccncn5)c4n3)cc2)CC1 [Example 177, 2-{[4-(4-methylpiperazin-1-yl)phenyl]amino}-6-phenyl-8-(pyrimidin-4-yl)pyrimido[4,5-d]pyridazin-5(6H)-one]"
8,19,"Cc1ccccc1-n1nc(Cc2ccccc2)c2nc(Nc3ccc(N4CCN(C)CC4)cc3)ncc2c1=O [Example 20, 8-benzyl-6-(2-methylphenyl)-2-{[4-(4-methylpiperazin-1-yl)phenyl]amino}pyrimido[4,5-d]pyridazin-5(6H)-one]"
9,6,"CN1CCN(c2ccc(Nc3ncc4c(=O)n(-c5ccccc5)nc(-c5ccccn5)c4n3)cc2)CC1 [Example 102, 2-{[4-(4-methylpiperazin-1-yl)phenyl]amino}-6-phenyl-8-(pyridin-2-yl)pyrimido[4,5-d]pyridazin-5(6H)-one]"
10,180,"CN1CCN(c2ccc(Nc3ncc4c(=O)n(C)nc(-c5ccccc5)c4n3)cc2)CC1 [Example 3, 6-methyl-2-{[4-(4-methylpiperazin-1-yl)phenyl]amino}-8-phenylpyrimido[4,5-d]pyridazin-5(6H)-one]"
11,150,"Cc1ccccc1-n1nc(-c2ccco2)c2nc(Nc3ccc(S(=O)(=O)N4CCOCC4)cc3)ncc2c1=O [Example 108, 8-(2-furyl)-6-(2-methylphenyl)-2-{[4-(morpholin-4-ylsulfonyl)phenyl]amino}pyrimido[4,5-d]pyridazin-5(6H)-one]"
12,0.05,"CN1Cc2cc(Nc3ncc4c(=O)n(-c5c(Cl)cccc5Cl)nc(-c5ccn(C)n5)c4n3)ccc2C2(CC2)C1 [Example 153, 6-(2,6-dichlorophenyl)-2-[(2′-methyl-2′,3′-dihydro-1′H-spiro[cyclopropane-1,4′-isoquinolin]-7′-yl)amino]-8-(1-methyl-1H-pyrazol-3-yl)pyrimido[4,5-d]pyridazin-5(6H)-one]"
13,0.4,"COc1cc(Nc2ncc3c(=O)n(-c4ccccc4C)nc(-c4ccccc4)c3n2)ccc1N1CCN(C(C)C)CC1 [Example 113, 2-{[4-(4-isopropylpiperazin-1-yl)-3-methoxyphenyl]amino}-6-(2-methylphenyl)-8-phenylpyrimido[4,5-d]pyridazin-5(6H)-one]"
